US20230097157A1, “Bicyclic Pyridin-2-one and pyrimidin-4-one Derivatives Useful As a Factor XIa Inhibitors” (Janssen Pharmaceutica NV, priority 2021, published 2023)
Where two headings read alike, the source gives them in different places.

Legend:
Factor XIa = Factor XIa (Homo sapiens, UniProt P03951); assay: Factor XIa inhibition assay (FLINT) utilizing a fluorophore-quencher pair peptide substrate 5Fam-[…]-K5Tamra; type: biochemical; settings: kinetic (KIN) reads, read-out: FXIa KIN Inh IC50
Summary of the method: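 Compounds were tested as 11-point 3-fold dilutions from 100 nM (2% DMSO). They were preincubated 30 min with FXIa in 50 mM Tris pH 7.5, 5 mM CaCl2, then 15 μM fluorophore-quencher peptide was added. Cleavage was followed at 485/520 nm over 30 min, and IC50 was derived by 4-parameter logistic fit.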

human plasma kallikrein = human plasma kallikrein (Homo sapiens, UniProt P03952); assay: Kallikrein inhibition assay (FLINT) utilizing a quenched AMC peptide substrate Z-Gly-Pro-Arg-AMC; type: biochemical; settings: kinetic (KIN) reads, read-out: Kallikrein KIN Inh IC50
Summary of the method: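 IC50 from a 4-parameter logistic fit of % inhibition from 11 concentrations (3-fold, top 1 μM, 2% DMSO). Compound pre-incubated 30 min with 2 nM enzyme in Tris pH 7.5, NaCl, CaCl2, BSA, CHAPS, then 50 μM AMC peptide substrate added. Fluorescence (340/440 nm) followed every 5 min for 30 min at room temperature.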

human plasma kallikrein, sequence (P03952 391-638 limits assumed): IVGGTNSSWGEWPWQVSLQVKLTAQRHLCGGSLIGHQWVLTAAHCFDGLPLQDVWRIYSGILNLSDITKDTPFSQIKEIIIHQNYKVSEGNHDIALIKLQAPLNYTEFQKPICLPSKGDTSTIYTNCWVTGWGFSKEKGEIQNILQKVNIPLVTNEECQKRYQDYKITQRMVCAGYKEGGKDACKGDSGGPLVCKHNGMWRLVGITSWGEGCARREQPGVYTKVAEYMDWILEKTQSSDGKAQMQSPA
human plasma kallikrein, sequence (P03952 20-390 partner limits assumed): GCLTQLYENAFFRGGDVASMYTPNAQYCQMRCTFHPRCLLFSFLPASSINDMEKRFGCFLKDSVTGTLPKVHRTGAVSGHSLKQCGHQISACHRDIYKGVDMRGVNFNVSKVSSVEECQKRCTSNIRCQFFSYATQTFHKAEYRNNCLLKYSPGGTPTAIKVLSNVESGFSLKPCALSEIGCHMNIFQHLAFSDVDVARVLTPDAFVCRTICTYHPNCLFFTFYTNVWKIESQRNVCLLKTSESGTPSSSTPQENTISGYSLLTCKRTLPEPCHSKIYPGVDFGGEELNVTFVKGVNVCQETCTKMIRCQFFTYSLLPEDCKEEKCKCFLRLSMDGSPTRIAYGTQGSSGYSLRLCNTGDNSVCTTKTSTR
Factor XIa, sequence (P03951 388-625 limits assumed): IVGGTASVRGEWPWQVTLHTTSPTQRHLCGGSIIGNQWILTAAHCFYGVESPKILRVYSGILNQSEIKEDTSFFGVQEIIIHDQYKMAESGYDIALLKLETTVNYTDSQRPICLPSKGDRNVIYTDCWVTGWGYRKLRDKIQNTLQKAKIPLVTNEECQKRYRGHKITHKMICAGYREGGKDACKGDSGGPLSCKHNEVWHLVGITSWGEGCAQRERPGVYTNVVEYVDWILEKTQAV
Factor XIa, sequence (P03951 19-387 partner limits assumed): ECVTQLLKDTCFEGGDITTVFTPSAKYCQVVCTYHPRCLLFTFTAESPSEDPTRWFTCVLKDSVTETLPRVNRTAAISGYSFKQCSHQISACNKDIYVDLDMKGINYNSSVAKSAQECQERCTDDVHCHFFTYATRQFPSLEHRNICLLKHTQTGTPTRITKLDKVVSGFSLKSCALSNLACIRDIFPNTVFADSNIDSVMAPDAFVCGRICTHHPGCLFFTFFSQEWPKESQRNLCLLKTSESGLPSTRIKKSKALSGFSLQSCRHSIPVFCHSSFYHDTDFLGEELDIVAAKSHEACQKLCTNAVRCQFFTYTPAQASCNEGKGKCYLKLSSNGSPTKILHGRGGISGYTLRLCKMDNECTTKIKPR

Row | IC50 (Factor XIa; unit μM) [µM] | IC50 (human plasma kallikrein; unit μM) [µM] | IC50 (Factor XIa; values in nM) [µM] | IC50 (human plasma kallikrein; values in nM) [µM] | Structure (SMILES)
1 | > 10 | > 10 | – | – | Cc1nc(N)sc1-c1cnc([C@H]2CC3(CC3)c3nc(-c4c(-n5cnnn5)ccc(Cl)c4F)cc(=O)n32)[nH]1 [Example 132, (R)-6′-(5-(2-Amino-4-methylthiazol-5-yl)-1H-imidazol-2-yl)-2′-(3-chloro-2-fluoro-6-(1H-tetrazol-1-yl)phenyl)-6′,7′-dihydro-4′H-spiro[cyclopropane-1,8′-pyrrolo[1,2-a]pyrimidin]-4′-one]
2 | > 10 | > 10 | – | – | C[C@@H]1C[C@@H](c2ncc(-c3ccnc(C(F)(F)F)c3)[nH]2)n2c1nc(-c1c(-n3cnnn3)ccc(Cl)c1F)cc2=O (relative stereo) [Example 147, (6S*,8R*)-2-(3-Chloro-2-fluoro-6-(1H-tetrazol-1-yl)phenyl)-8-methyl-6-(5-(2-(trifluoromethyl)pyridin-4-yl)-1H-imidazol-2-yl)-7,8-dihydropyrrolo[1,2-a]pyrimidin-4(6H)-one]
3 | – | 1.6 | 0.168 | – | Cc1nc(N)c(F)cc1-c1cnc([C@H]2C[C@H](C)c3nc(-c4c(-n5cnnn5)ccc(Cl)c4F)cc(=O)n32)[nH]1 (relative stereo) [Example 129, (6*R,8*S)-6-(5-(6-Amino-5-fluoro-2-methylpyridin-3-yl)-1H-imidazol-2-yl)-2-(3-chloro-2-fluoro-6-(1H-tetrazol-1-yl)phenyl)-8-methyl-7,8-dihydropyrrolo[1,2-a]pyrimidin-4(6H)-one]
4 | – | – | 0.0002 | 0.0183 | C[C@H]1C[C@@H](c2ncc(-c3ccc(N)nc3Cl)[nH]2)n2c1nc(-c1c(-n3cnnn3)ccc(Cl)c1F)cc2=O (single isomer, unassigned) [Example 142]
5 | – | – | 0.0621 | 0.246 | C[C@H]1C[C@@H](c2ncc(-c3ccnn3C)[nH]2)n2c1nc(-c1c(-n3cnnn3)ccc(Cl)c1F)cc2=O (stereo in doubt) [Example 144, (6S*,8S*)-2-(3-Chloro-2-fluoro-6-(1H-tetrazol-1-yl)phenyl)-8-methyl-6-(5-(1-methyl-1H-pyrazol-5-yl)-1H-imidazol-2-yl)-7,8-dihydropyrrolo[1,2-a]pyrimidin-4(6H)-one]
6 | – | > 10 | 0.566 | – | C[C@H]1CC(c2ncc(-c3cnnn3C)[nH]2)n2c1nc(-c1c(-n3cnnn3)ccc(Cl)c1F)cc2=O (stereo in doubt) [Example 136, (6*S,8*S)-2-(3-Chloro-2-fluoro-6-(1H-tetrazol-1-yl)phenyl)-8-methyl-6-(5-(1-methyl-1H-1,2,3-triazol-5-yl)-1H-imidazol-2-yl)-7,8-dihydropyrrolo[1,2-a]pyrimidin-4(6H)-one]
7 | – | 5.6 | 0.095 | – | C[C@@H]1C[C@@H](c2ncc(-c3ccc(NC(=O)C4CC4)nc3)[nH]2)n2c1nc(-c1c(-n3cnnn3)ccc(Cl)c1F)cc2=O (stereo in doubt) [Example 122, N-(5-(2-((6*S,8*R)-2-(3-Chloro-2-fluoro-6-(1H-tetrazol-1-yl)phenyl)-8-methyl-4-oxo-4,6,7,8-tetrahydropyrrolo[1,2-a]pyrimidin-6-yl)-1H-imidazol-5-yl)pyridin-2-yl)cyclopropanecarboxamide]

The remaining lines, values behind:

Row | Structure (SMILES) | IC50 (Factor XIa; unit μM) [µM] | IC50 (human plasma kallikrein; unit μM) [µM] | IC50 (Factor XIa; values in nM) [µM] | IC50 (human plasma kallikrein; values in nM) [µM]
8 | C[C@H]1C[C@H](c2ncc(-c3ccnc(C#N)c3)[nH]2)n2c1cc(-c1c(-n3cnnn3)ccc(Cl)c1F)cc2=O (relative stereo) [Example 30, 4-(2-((1S,3R)-7-(3-Chloro-2-fluoro-6-(1H-tetrazol-1-yl)phenyl)-1-methyl-5-oxo-1,2,3,5-tetrahydroindolizin-3-yl)-1H-imidazol-5-yl)picolinonitrile] | – | 1.2 | 0.873 | –
9 | CC1C[C@@H](c2nc(-c3cnc(N)cn3)c[nH]2)n2c1nc(-c1c(-n3cc(C(F)(F)F)nn3)ccc(Cl)c1F)cc2=O (stereo partly drawn) [Example 80, (6S)-6-(4-(5-aminopyrazin-2-yl)-1H-imidazol-2-yl)-2-(3-chloro-2-fluoro-6-(4-(trifluoromethyl)-1H-1,2,3-triazol-1-yl)phenyl)-8-methyl-7,8-dihydropyrrolo[1,2-a]pyrimidin-4(6H)-one] | – | – | 0.0044 | ~0.236
10 | C[C@H]1C[C@@H](c2ncc(-c3ccnc(N)n3)[nH]2)n2c1cc(-c1c(-n3cnnn3)ccc(Cl)c1F)cc2=O [Example 20, (1S,3S)-3-(5-(2-Aminopyrimidin-4-yl)-1H-imidazol-2-yl)-7-(3-chloro-2-fluoro-6-(1H-tetrazol-1-yl)phenyl)-1-methyl-2,3-dihydroindolizin-5(1H)-one] | – | – | 0.0197 | 0.295
11 | C[C@@H]1C[C@@H](c2ncc(-c3cnc(N)c(F)c3)[nH]2)n2c1cc(-c1c(-n3cnnn3)ccc(Cl)c1F)cc2=O (relative stereo) [Example 62, (1*R,3*S)-3-(5-(6-amino-5-fluoropyridin-3-yl)-1H-imidazol-2-yl)-7-(3-chloro-2-fluoro-6-(1H-tetrazol-1-yl)phenyl)-1-methyl-2,3-dihydroindolizin-5(1H)-one] | – | – | 0.0196 | 0.0181
12 | Cc1c(-c2cnc([C@@H]3C[C@H](C)c4cc(-c5c(-n6cnnn6)ccc(Cl)c5F)cc(=O)n43)[nH]2)ccnc1C#N (relative stereo) [Example 33, 4-(2-((1S*,3S*)-7-(3-Chloro-2-fluoro-6-(1H-tetrazol-1-yl)phenyl)-1-methyl-5-oxo-1,2,3,5-tetrahydroindolizin-3-yl)-1H-imidazol-5-yl)-3-methylpicolinonitrile] | – | – | 0.0068 | 0.152
13 | C[C@@H]1C[C@@H](c2ncc(-c3cn[nH]c3)[nH]2)n2c1nc(-c1c(-n3cnnn3)ccc(Cl)c1F)cc2=O (stereo in doubt) [Example 111, (6*S,8*R)-6-(5-(1H-Pyrazol-4-yl)-1H-imidazol-2-yl)-2-(3-chloro-2-fluoro-6-(1H-tetrazol-1-yl)phenyl)-8-methyl-7,8-dihydropyrrolo[1,2-a]pyrimidin-4(6H)-one] | – | – | 0.0226 | 0.145
14 | C[C@H]1C[C@@H](c2ncc(-c3ccc(N)nn3)[nH]2)n2c1cc(-c1c(-n3cnnn3)ccc(Cl)c1F)cc2=O (relative stereo) [Example 10, (1 S*,3S*)-3-(5-(6-Aminopyridazin-3-yl)-1H-imidazol-2-yl)-7-(3-chloro-2-fluoro-6-(1H-tetrazol-1-yl)phenyl)-1-methyl-2,3-dihydroindolizin-5(1H)-one] | – | – | 0.0183 | 0.345
15 | COc1cc(-c2cnc([C@H]3C[C@H](C)c4nc(-c5c(-n6cnnn6)ccc(Cl)c5F)cc(=O)n43)[nH]2)ccn1 (stereo in doubt) [Example 100, (6*R,8*S)-2-(3-Chloro-2-fluoro-6-(1H-tetrazol-1-yl)phenyl)-6-(5-(2-methoxypyridin-4-yl)-1H-imidazol-2-yl)-8-methyl-7,8-dihydropyrrolo[1,2-a]pyrimidin-4(6H)-one] | – | – | 0.0069 | 0.0076
16 | O=c1cc(-c2c(-n3cnnn3)ccc(Cl)c2F)nc2n1[C@H](c1nc(-c3ccnc(OCC(O)C(F)(F)F)c3F)c[nH]1)CC21CC1 (single isomer, unassigned) [Example 74, (S)-2′-(3-chloro-2-fluoro-6-(1H-tetrazol-1-yl)phenyl)-6′-(4-(3-fluoro-2-((R*)-3,3,3-trifluoro-2-hydroxypropoxy)pyridin-4-yl)-1H-imidazol-2-yl)-6′,7′-dihydro-4′H-spiro[cyclopropane-1,8′-pyrrolo[1,2-a]pyrimidin]-4′-one] | – | – | 0.0321 | 0.0277
17 | O=c1cc(-c2c(-n3cnnn3)ccc(Cl)c2F)cc2n1[C@@H](c1ncc(-c3ccnc(CO)c3F)[nH]1)CC21CC1 (single isomer, unassigned) [Example 8] | – | > 1 | > 0.1 | –
18 | C[C@H]1C[C@@H](c2ncc(-c3ccc4nccn4c3)[nH]2)n2c1cc(-c1c(-n3cnnn3)ccc(Cl)c1F)cc2=O (stereo in doubt) [Example 48, (1S*,3S*)-7-(3-Chloro-2-fluoro-6-(1H-tetrazol-1-yl)phenyl)-3-(5-(imidazo[1,2-a]pyridin-6-yl)-1H-imidazol-2-yl)-1-methyl-2,3-dihydroindolizin-5(1H)-one] | 3 | > 10 | – | –
19 | COC(=O)Nc1ccc(-c2cnc([C@@H]3C[C@H](C)c4nc(-c5c(-n6cnnn6)ccc(Cl)c5F)cc(=O)n43)[nH]2)cn1 (stereo in doubt) [Example 116, Methyl (5-(2-((6*S,8*S)-2-(3-Chloro-2-fluoro-6-(1H-tetrazol-1-yl)phenyl)-8-methyl-4-oxo-4,6,7,8-tetrahydropyrrolo[1,2-a]pyrimidin-6-yl)-1H-imidazol-5-yl)pyridin-2-yl)carbamate] | – | – | 0.0012 | 0.0268
20 | C[C@H]1C[C@@H](c2ncc(-c3ccc(N)nc3F)[nH]2)n2c1cc(-c1c(-n3cnnn3)ccc(Cl)c1F)cc2=O (stereo in doubt) [Example 68, (1*S,3*S)-3-(5-(6-Amino-2-fluoropyridin-3-yl)-1H-imidazol-2-yl)-7-(3-chloro-2-fluoro-6-(1H-tetrazol-1-yl)phenyl)-1-methyl-2,3-dihydroindolizin-5(1H)-one] | > 10 | > 10 | – | –
21 | COC(=O)Nc1ccc(-c2cnc([C@H]3C[C@@H](C)c4nc(-c5c(-n6cnnn6)ccc(Cl)c5F)cc(=O)n43)[nH]2)cn1 (stereo in doubt) [Example 117, Methyl (5-(2-((6*R,8*R)-2-(3-Chloro-2-fluoro-6-(1H-tetrazol-1-yl)phenyl)-8-methyl-4-oxo-4,6,7,8-tetrahydropyrrolo[1,2-a]pyrimidin-6-yl)-1H-imidazol-5-yl)pyridin-2-yl)carbamate] | 6.1 | > 10 | – | –
